Assay results as given in US20090054392A1, “NAPHTHYLPYRIMIDINE, NAPHTHYLPYRAZINE AND NAPHTHYLPYRIDAZINE ANALOGS AND THEIR USE AS AGONISTS OF THE WNT-BETA-CATENIN CELLULAR MESSAGING SYSTEM” (Wyeth, priority 2007, published 2009).
pEC50: −log10 of the molar value.

Tested on: Dkk1-LRP5-TCF-Luciferase
Assay: Functional Dkk1-LRP5-TCF-Luciferase Assay in U2OS Cells
Conditions: for pEC50 / fold induction at 2 µM / fold induction at 20 µM: Homo sapiens, U2OS; for fold induction at 2 µM: read-out: B = TCF ACTIVITY/DMSO CONTROL Fold induction @ 2.0 uM, 2.0 uM compound; for fold induction at 20 µM: read-out: C = TCF ACTIVITY/DMSO CONTROL Fold induction @ 20.0 uM, 20.0 uM compound; for A = MAX FOLD Induction/DMSO CONTROL: maximum fold induction over DMSO control

| pEC50 | A = MAX FOLD Induction/DMSO CONTROL [fold] | Compound | fold induction at 2 µM | fold induction at 20 µM |
| --- | --- | --- | --- | --- |
| 4.85 | 2.980 | CC(=O)N1CC[C@@H](Nc2nccc(-c3ccc4ccccc4c3)n2)C1 [N-[(3R)-1-acetylpyrrolidin-3-yl]-4-(2-naphthyl)pyrimidin-2-amine] | 1.21 | 2.06 |
|  |  | N[C@H]1CCN([C@@H]2CCN(c3nccc(-c4ccc5ccccc5c4)n3)C2)C1 [(3S,3′R)-1′-[4-(2-naphthyl)pyrimidin-2-yl]-1,3′-bipyrrolidin-3-amine] | 1.2 |  |
| 5.28 | 3.552 | NC(=O)N1CCC(Nc2nccc(-c3ccc4ccccc4c3)n2)CC1 [4-{[4-(2-naphthyl)pyrimidin-2-yl]amino}piperidine-1-carboxamide] | 1.31 | 3.17 |
|  |  | NC(=O)N[C@H]1CCN(c2nccc(-c3ccc4ccccc4c3)n2)C1 [N-{(3S)-1-[4-(2-naphthyl)pyrimidin-2-yl]pyrrolidin-3-yl}urea] |  | 1.47 |
| 5.63 | 4.773 | CNC[C@@H]1CCN(c2nccc(-c3ccc4ccccc4c3)n2)C1 [N-methyl-1-{(3S)-1-[4-(2-naphthyl)pyrimidin-2-yl]pyrrolidin-3-yl}methanamine] | 2.74 | 0.503 |
|  |  | C=Cc1ccc2cc(-c3ccnc(N4CCC(CN)CC4)n3)ccc2c1 [1-{1-[4-(6-vinyl-2-naphthyl)pyrimidin-2-yl]piperidin-4-yl}methanamine] | 1.21 |  |
|  |  | CN(C)S(=O)(=O)N[C@H]1CC[C@H](Nc2nccc(-c3ccc4ccccc4c3)n2)CC1 [N,N-dimethyl-N′-(trans-4-{[4-(2-naphthyl)pyrimidin-2-yl]amino}cyclohexyl)sulfamide] | 1.65 | 1.74 |
|  |  | CC(C)(O)[C@H](N)C1CCN(c2nccc(-c3ccc4ccccc4c3)n2)CC1 [(1R)-1-amino-2-methyl-1-{1-[4-(2-naphthyl)pyrimidin-2-yl]piperidin-4-yl}propan-2-ol] | 1.78 |  |
| 5.39 | 1.690 | CN(C)C(=O)NCC1CCN(c2nccc(-c3ccc4ccccc4c3)n2)CC1 [N,N-dimethyl-N′-({1-[4-(2-naphthyl)pyrimidin-2-yl]piperidin-4-yl}methyl)urea] | 1.12 | 2.36 |
|  | 2.510 | c1ccc2cc(-c3ccnc(N4CCC(CN5CCNCC5)CC4)n3)ccc2c1 [4-(2-naphthyl)-2-[4-(piperazin-1-ylmethyl)piperidin-1-yl]pyrimidine] | 5.17 | 0.01 |
|  |  | O=C(c1ccccc1)N1CCCN(c2nccc(-c3ccc4ccccc4c3)n2)CC1 [1-benzoyl-4-[4-(2-naphthyl)pyrimidin-2-yl]-1,4-diazepane] | 1.06 | 0.35 |
|  |  | O=C(N[C@H]1CCN(c2nccc(-c3ccc4ccccc4c3)n2)C1)c1ccccc1 [N-{(3S)-1-[4-(2-naphthyl)pyrimidin-2-yl]pyrrolidin-3-yl}benzamide] | 1.13 | 0.64 |
|  |  | CCN(CC)CC1CCN(c2nccc(-c3ccc4ccccc4c3)n2)C1 (stereo not drawn) [N-ethyl-N-({1-[4-(2-naphthyl)pyrimidin-2-yl]pyrrolidin-3-yl}methyl)ethanamine] | 1.58 |  |
|  |  | O=C(NCC1CN(c2nccc(-c3ccc4ccccc4c3)n2)C1)C(F)(F)F [2,2,2-trifluoro-N-({1-[4-(2-naphthyl)pyrimidin-2-yl]azetidin-3-yl}methyl)acetamide] | 1.77 |  |
| 5.62 | 2.070 | c1ccc2cc(-c3ccnc(NCc4ccncc4)n3)ccc2c1 [4-(2-naphthyl)-N-(pyridin-4-ylmethyl)pyrimidin-2-amine] | 1.41 | 1.7 |
|  |  | CC(C)NC(=O)N[C@@H]1CCN(c2nccc(-c3ccc4ccccc4c3)n2)C1 [N-isopropyl-N′-{(3R)-1-[4-(2-naphthyl)pyrimidin-2-yl]pyrrolidin-3-yl}urea] | 1.19 | 1.09 |
|  |  | COC(=O)C(Nc1nccc(-c2ccc3ccccc3c2)n1)C1CCN(C(=O)OC(C)(C)C)CC1 (stereo not drawn) [tert-butyl 4-(2-methoxy-1-{[4-(2-naphthyl)pyrimidin-2-yl]amino}-2-oxoethyl)piperidine-1-carboxylate] | 1.62 |  |
| 5.43 | 4.730 | N[C@H]1CC[C@H](Nc2nccc(-c3ccc4ccccc4c3)n2)CC1 [trans-N-[4-(2-naphthyl)pyrimidin-2-yl]cyclohexane-1,4-diamine] | 1.91 | 3.95 |

| pEC50 | A = MAX FOLD Induction/DMSO CONTROL [fold] | Compound | fold induction at 2 µM | fold induction at 20 µM |
| --- | --- | --- | --- | --- |
|  |  | c1ccc2cc(-c3ccnc(N4CC[C@H](CN5CCCCC5)C4)n3)ccc2c1 [4-(2-naphthyl)-2-[(3R)-3-(piperidin-1-ylmethyl)pyrrolidin-1-yl]pyrimidine] | 1.21 | 1.34 |
| 5.52 | 3.390 | CN(C)[C@H]1CCN(c2nccc(-c3ccc4ccccc4c3)n2)C1 [(3S)—N,N-dimethyl-1-[4-(2-naphthyl)pyrimidin-2-yl]pyrrolidin-3-amine] |  | 0.08 |
|  | 1.660 | NC(=O)C1CCN(c2nccc(-c3ccc4ccccc4c3)n2)CC1 [1-[4-(2-naphthyl)pyrimidin-2-yl]piperidine-4-carboxamide] | 1.62 | 1.15 |
|  |  | OCC1CCN([C@H]2CCN(c3nccc(-c4ccc5ccccc5c4)n3)C2)CC1 [(1-{(3S)-1-[4-(2-naphthyl)pyrimidin-2-yl]pyrrolidin-3-yl}piperidin-4-yl)methanol] | 1.72 | 0.94 |
| 5.14 | 5.305 | O=CN1CC[C@@H](Nc2nccc(-c3ccc4ccccc4c3)n2)C1 [(3R)-3-{[4-(2-naphthyl)pyrimidin-2-yl]amino}pyrrolidine-1-carbaldehyde] | 1.03 | 2.69 |
|  |  | CN(C)CCCN(C)[C@H]1CCN(c2nccc(-c3ccc4ccccc4c3)n2)C1 [N,N,N′-trimethyl-N′-{(3S)-1-[4-(2-naphthyl)pyrimidin-2-yl]pyrrolidin-3-yl}propane-1,3-diamine] | 2 |  |
|  |  | CN(C)CCCN1CCN(c2nccc(-c3ccc4ccccc4c3)n2)CC1 [N,N-dimethyl-3-{4-[4-(2-naphthyl)pyrimidin-2-yl]piperazin-1-yl}propan-1-amine] | 1.87 |  |
|  |  | CN(c1nccc(-c2ccc3ccccc3c2)n1)C1CCN(CCOC(c2ccccc2)(c2ccccc2)c2ccccc2)CC1 [N-methyl-4-(2-naphthyl)-N-{1-[2-(trityloxy)ethyl]piperidin-4-yl}pyrimidin-2-amine] | 1.14 | 1.02 |
|  |  | CC(C)NC(=O)NCCC1CCN(c2nccc(-c3ccc4ccccc4c3)n2)CC1 [N-isopropyl-N′-(2-{1-[4-(2-naphthyl)pyrimidin-2-yl]piperidin-4-yl}ethyl)urea] | 1.46 | 1.58 |
|  | 1.030 | CNC[C@H]1CCN(c2nccc(-c3ccc4ccccc4c3)n2)C1 [N-methyl-1-{(3R)-1-[4-(2-naphthyl)pyrimidin-2-yl]pyrrolidin-3-yl}methanamine] | 2.76 | 0.01 |
| 5.23 | 1.960 | c1cncc(CNc2nccc(-c3ccc4ccccc4c3)n2)c1 [4-(2-naphthyl)-N-(pyridin-3-ylmethyl)pyrimidin-2-amine] | 1.55 | 1.41 |
|  | 1.585 | CC1(C)OC(=O)N[C@@H]1C1CCN(c2nccc(-c3ccc4ccccc4c3)n2)CC1 [(4R)-5,5-dimethyl-4-{1-[4-(2-naphthyl)pyrimidin-2-yl]piperidin-4-yl}-1,3-oxazolidin-2-one] | 1.98 | 1.39 |
|  |  | CCCN(C)CCN(C)[C@@H]1CCN(c2nccc(-c3ccc4ccccc4c3)n2)C1 [N,N′-dimethyl-N-{(3R)-1-[4-(2-naphthyl)pyrimidin-2-yl]pyrrolidin-3-yl}-N′-propylethane-1,2-diamine] | 3.4 |  |
| 4.52 | 3.070 | CCN(CC)C(=O)N1CCCN(c2nccc(-c3ccc4ccccc4c3)n2)CC1 [N,N-diethyl-4-[4-(2-naphthyl)pyrimidin-2-yl]-1,4-diazepane-1-carboxamide] |  | 1.49 |
|  | 1.440 | CN(C)[C@@H]1CCN(C[C@H]2CCN(c3nccc(-c4ccc5ccccc5c4)n3)C2)C1 [(3R)—N,N-dimethyl-1-({(3R)-1-[4-(2-naphthyl)pyrimidin-2-yl]pyrrolidin-3-yl}methyl)pyrrolidin-3-amine] | 2.24 | 0.02 |
|  |  | CCOC(=O)CC1CCN(c2nccc(-c3ccc4ccccc4c3)n2)CC1 [ethyl {1-[4-(2-naphthyl)pyrimidin-2-yl]piperidin-4-yl}acetate] | 1.26 | 1.06 |
|  |  | CN(CCN(C)S(C)(=O)=O)[C@@H]1CCN(c2nccc(-c3ccc4ccccc4c3)n2)C1 [N-methyl-N-[2-(methyl{(3R)-1-[4-(2-naphthyl)pyrimidin-2-yl]pyrrolidin-3-yl}amino)ethyl]methanesulfonamide] |  | 1.9 |
|  |  | CN(c1nccc(-c2ccc3ccccc3c2)n1)[C@H]1CC[C@H](CN)CC1 [N-[trans-4-(aminomethyl)cyclohexyl]-N-methyl-4-(2-naphthyl)pyrimidin-2-amine] | 1.4 |  |

| Compound | pEC50 | A = MAX FOLD Induction/DMSO CONTROL [fold] | fold induction at 2 µM | fold induction at 20 µM |
| --- | --- | --- | --- | --- |
| CN(c1nccc(-c2ccc3ccccc3c2)n1)C1CCNCC1 [N-methyl-4-(2-naphthyl)-N-piperidin-4-ylpyrimidin-2-amine] | 5.74 | 2.320 | 2.65 | 1.35 |
